{
  "source": "patent US20160289663A1",
  "about": "“NOVEL CHIMERIC GENE ATF7IP-PDGFRB OF ACUTE LYMPHOBLASTIC LEUKEMIA” (priority 2013, published 2016)",
  "key": {"[1]": {"test_system": "Mock Ba/F3 cells", "test": "Cell proliferation (WST) assay, Mock Ba/F3 cells with WEHI-3-conditioned medium", "type": "cell-based, mouse", "conditions": "24 hours, presence of conditioned medium, FIG. 10A", "method": "The data were analyzed by F-test. P values less than 0.05 were considered significant."}, "[2]": {"test_system": "ATF7IP-PDGFRB-expressing Ba/F3 cells", "test": "Cell proliferation (WST) assay, ATF7IP-PDGFRB Ba/F3 transfectants without conditioned medium", "conditions": "for effect on viable cell number: next-generation TKIs, FIG. 13", "method": "(A) ATF7IP-PDGFRB-expressing Ba/F3 cells in the absence of WEHI-3-conditioned medium (CM) and Mock Ba/F3 cells in the presence of CM were each treated with or without either the PI3 kinase inhibitor LY294002 or the MEK inhibitor PD98059 at the indicated concentrations for 24 hours. Subsequently, the number of living cells was estimated for each type of the cells by WST assay in the same way as in FIG. 5B. The ratio of the OD value obtained from the inhibitor-treated cells relative to that obtained from the inhibitor-untreated cells was calculated and expressed as the means±SEM of triplicates. (B) ATF7IP-PDGFRB-expressing Ba/F3 cells were treated with PD98059 in the presence or absence of CM, and examined in the same way as in (A). […]\nThe data were analyzed by F-test. P values less than 0.05 were considered significant. All experiments were performed at least three times to calculate means and SEM values."}, "[3]": {"test_system": "phosphorylation of MAP kinases/AKT and PDGFRB in ATF7IP-PDGFRB-expressing Ba/F3 cells", "test": "Immunoblot of MAP kinase/AKT/PDGFRB phosphorylation in ATF7IP-PDGFRB Ba/F3 cells", "type": "cell-based, mouse", "conditions": "immunoblotting, FIG. 11", "method": "Cell lysates were prepared from the same sample preparations as in FIG. 10. Immunoblot analysis was performed in the same way as in FIG. 8. Abbreviations: None, without inhibitor; LY, with LY294002; and PD, with PD98059.\nImmunoblot analysis was performed as in FIG. 8.\nImmunoblot analysis was performed as described previously (Kiyokawa, et al., J Biol Chem, 1997, 272, 18656-18665; Tomita, et al., Leukemia Research, 2014, 38, 361-370) using the following antibodies: anti-phosphotyrosine (4G10; Merck Millipore), anti-PDGF receptor β (28E1), anti-phospho-PDGF receptor β Tyr751 (C63G6), anti-phospho-PDGF receptor β Tyr 771 (76D6), anti-phospho-PDGF receptor β Tyr1009 (42F9), anti-phospho-PDGF receptor β Tyr1021 (6F10), anti-phospho-p44/42 MAPK (ERK1/2, Tyr202/Tyr204), anti-phospho-p38 MAPK (Thr180/Tyr182), anti-phospho-JNK (Thr183/Tyr185, 81E11), anti-phospho-AKT (Ser473), anti-phospho-PLCγ1 (Tyr783), anti-Casitas B-lineage lymphoma binding (Cbl), anti-p38 MAPK antibody and anti-JNK antibody (Cell Signaling Technology); anti-ATF7IP (MCAF1) (Abcam, Cambridge, UK); anti-ERK, anti-PLCγ, (BD Biosciences, San Jose, Calif., USA); anti-β-actin (Sigma-Aldrich, St. Louis, Mo.); and horseradish peroxidase (HRP)-conjugated secondary antibody (Dako, Glostrup, Denmark). […]"}, "[4]": {"test_system": "recurrent Ph-like acute lymphoblastic leukemia bearing ATF7IP/PDGFRB translocation", "test": "Dasatinib monotherapy case report, MRD monitored by leukemia-specific genomic PCR", "type": "in vivo, human", "conditions": "one patient, 66 mg/m^2/day", "experimental": "(A) The therapeutic response was evaluated by fluorescence in situ hybridization (FISH), RT-PCR (Kobayashi K., et al., Br J Haematol, 2014, 165, 836-841), and genomic PCR.\nThis example describes a monotherapy with the tyrosine kinase inhibitor (TKI) dasatinib in a patient with recurrent Ph-like acute lymphoblastic leukemia bearing ATF7IP/PDGFRB translocation."}, "[5]": {"test_system": "myeloid malignancies bearing PDGFRB fusion genes", "conditions": "without secondary resistance; Cheah et al., Blood 2014; cited from earlier work"}, "[6]": {"conditions": "Mus musculus, BaF3, 48 h, read-out: viable cell number"}},
  "note": "Where a name gives a salt, the structure may show the parent alone.",
  "data": [
    {"molecule": "COc1cccc(-c2cc(=O)c3ccccc3o2)c1N", "note": "[PD98059]", "values": [
      {"measurement": "cell death", "setting": "[1]", "value": "not in the Mock-expressing Ba/F3 cells"},
      {"measurement": "cell death", "setting": "[2]; 24 hours, absence of conditioned medium, FIG. 10A", "value": "induced cell death"},
      {"measurement": "MEK inhibitor-induced cell death with simultaneous conditioned medium containing IL3", "setting": "[2]; presence of conditioned medium, FIG. 10B", "value": "partially avoided"},
      {"measurement": "phosphorylation of MAP kinase", "setting": "[3]", "value": "markedly reduced"}
    ]},
    {"molecule": "Cc1nc(Nc2ncc(C(=O)Nc3c(C)cccc3Cl)s2)cc(N2CCN(CCO)CC2)n1", "note": "[dasatinib]", "values": [
      {"measurement": "duration of complete molecular remission", "setting": "[4]", "value": "≥ 12", "unit": "months"},
      {"measurement": "time to disappearance of MRD", "setting": "[4]; leukemia-specific genomic PCR", "value": "≤ 3", "unit": "months"},
      {"measurement": "viability at 0.0025 µM", "setting": "[2]; [6]", "value": "< 10", "unit": "%"}
    ]},
    {"molecule": "Cc1ccc(NC(=O)c2ccc(CN3CCN(C)CC3)cc2)cc1Nc1nccc(-c2cccnc2)n1", "note": "[imatinib mesylate]", "values": [
      {"measurement": "10-year overall survival rate", "setting": "[5]", "value": 90, "unit": "%"}
    ]},
    {"molecule": "Cc1ccc(NC(=O)c2ccc(CN3CCN(C)CC3)cc2)cc1Nc1nccc(-c2cccnc2)n1", "note": "[imatinib]", "values": [
      {"measurement": "cell proliferation", "setting": "[2]; IL-3-independent proliferation, exposure to TKI", "value": "significantly inhibited in a concentration-dependent manner"},
      {"measurement": "viability at 0.025 µM", "setting": "[2]; [6]", "value": "< 10", "unit": "%"}
    ]},
    {"molecule": "Cc1cn(-c2cc(NC(=O)c3ccc(C)c(Nc4nccc(-c5cccnc5)n4)c3)cc(C(F)(F)F)c2)cn1", "note": "[nilotinib]", "values": [
      {"measurement": "effect on viable cell number", "setting": "[2]", "value": "effectively reduced the viable cell number"}
    ]},
    {"molecule": "CNC(=O)c1cc(Oc2ccc(NC(=O)Nc3cc(C(C)(C)C)nn3-c3ccc4ncccc4c3)c(F)c2)ccn1", "note": "[rebastinib]", "values": [
      {"measurement": "effect on viable cell number", "setting": "[2]", "value": "effectively reduced the viable cell number"}
    ]}
  ]
}
